14 molecules from PubChem BioAssay (NCI) can be followed below.

Broadly, the TGI is the concentration giving total growth inhibition. The low end stands for greater sensitivity of the cells, the high end for lower sensitivity of the cells.

Assay in all cases: DTP human tumour cell line panel, 48 h
Test [1] relates to EKVX NSCLC.
The subject of test [2] is MCF7 breast.
In test [3] the test system is HT29 colon.
Test [4] concerns UACC-62 melanoma.
Test [5] relates to U251 CNS.
Test [6] concerns ACHN renal.
In test [7] the test system is MDA-N.
Test [8] deals with SK-MEL-2 melanoma.
In test [9] the test system is SK-OV-3 ovarian.

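A five-concentration, 48-hour dose response in 96-well plates underlies each endpoint, interpolated linearly between surrounding concentrations. The concentration for full growth arrest is given as TGI.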 Peptide text beside a SMILES is read from it. * marks the point of attachment. X26 = Clc1c(Cl)c(Cl)c(O*)c(Cl)c1Cl; Boc = CC(C)(C)OC(=O)*; OBn = c1ccc(CO*)cc1; Bn = c1ccc(C*)cc1

`O=C1/C(=C/c2ccncc2)C(n2cccc2)c2c(Br)sc(Br)c21` (stereo unspecified): the TGI in test [1] amounted to 8.87 µM; in test [2], 12.7 µM; in [3], 23.5 µM; in [4], 7.5 µM; in test [5] it was 4.86 µM; in [6] it was 17.1 µM. The results for the TGI in [7], in test [8] and in test [9] were 8.36 µM, 6.56 µM and 20.7 µM, respectively.

As for `CCCCN1C(=O)CC2[C@@H]3CCc4cc(OC)ccc4C3CC[C@]2(C)C1=O` (stereo partly specified), the TGI in test [1], in test [2], in test [3], in test [4], in [5] and in [6] was above 10 µM throughout. The TGI in [7], in [8] and in test [9] was above 10 µM each time.

For the molecule `COc1ccc(C2=C(Cl)C(=O)O/C2=C\c2ccc(OC)c(Br)c2)cc1Cl`, the concentration for total growth inhibition (TGI) is 90.8 µM in test [1]; 46.9 µM in [2]; above 100 µM in test [3]; 74.9 µM in test [4]; 36.6 µM in test [5]; 40.2 µM in test [6]. The values for the TGI in test [7], in [8] and in test [9] were above 100 µM, 60.2 µM and above 100 µM, respectively.

`O=P(OCc1ccccc1)(OCc1ccccc1)C(O)/C=C/c1ccccc1` (stereo unspecified): the TGI in [1] was 95.6 µM; in test [2], above 100 µM; in test [3], 45.4 µM; in test [4], 31.4 µM; in [5] it was 27.4 µM; in test [6] it was 95.9 µM. For the same molecule, the figures for the TGI in [7], in test [8] and in test [9] were 36 µM, 43.8 µM and above 100 µM, respectively.

`NCCCCNCCCNC(=O)CNC(=O)CC(O)C(N)CCCC(NC(=O)C(CN)NC(=O)C(O)CNC(=O)CC(N)c1ccc(O)cc1)C(=O)O` (stereo unspecified): the TGI in test [1], in [2], in test [3], in test [4], in test [5] and in test [6] was above 10 µM in each case. Besides, the TGI in test [7], in [8] and in test [9] was above 10 µM throughout.

Take `COc1ccc(C2Oc3c(OC)cc(CCCO)cc3C2CO)cc1OC` (stereo unspecified): the TGI in [1], in [2], in test [3], in test [4], in test [5] and in [6] was above 100 µM each time. The TGI in test [7], in test [8] and in [9] was above 100 µM each time.

Regarding `CC(C)CC(NC(=O)C(CCC(=O)OCc1ccccc1)NC(=O)OC(C)(C)C)C(=O)NC(COCc1ccccc1)C(=O)NC(Cc1ccccc1)C(=O)Oc1c(Cl)c(Cl)c(Cl)c(Cl)c1Cl` (stereo unspecified) (Boc-E(OBn)LS(Bn)F-X26; configuration not given here), the TGI in test [1] was 96.2 µM; in [2] it was 66.3 µM; in test [3], above 100 µM; in [4], 44.4 µM; in [5], 43.7 µM; in test [6] it was 57.8 µM. For the same molecule, the TGI in test [7] turned out to be 48.6 µM; in [8], 69 µM; in [9] it was 83.8 µM.

Take `COc1ccc(OC/C(N=Cc2ccncc2)=N/NC(=O)c2ccncc2)cc1`: the total growth inhibition concentration (TGI) in [1], in test [2], in [3], in test [4], in [5] and in test [6] was above 100 µM each time. Besides, the TGI was 39.8 µM in [7], above 100 µM in test [8] and above 100 µM in test [9].

Take `NC(N)=NS(=O)(=O)c1ccc(NC(=O)c2cccc3c(NNc4ccc(S(N)(=O)=O)cc4)c4ccccc4nc23)cc1`: the TGI was above 100 µM in test [1]; 86.3 µM in test [2]; above 100 µM in [3]; above 100 µM in test [4]; above 100 µM in [5]; above 100 µM in test [6]. For the same molecule, the TGI in test [7], in [8] and in test [9] was above 100 µM each time.

As for `Cc1nc(SCC(N)=O)c2sc(=S)n(-c3ccccc3)c2n1`, the TGI in [1], in test [2], in test [3], in test [4], in test [5] and in test [6] was above 10 µM each time. The TGI in test [7], in test [8] and in [9] was above 10 µM each time.

For the molecule `O=C(Sc1c(-c2ccccc2)c(=O)n(-c2ccccc2)c(=S)n1-c1ccccc1)c1ccco1`, the TGI in test [1], in test [2], in [3], in test [4], in test [5] and in test [6] was above 100 µM each time. Also, the TGI in [7], in test [8] and in test [9] was above 100 µM each time.

With `COCC#C[C@@]1(O)CCCCC1CC(OC)OC` (stereo partly specified), the TGI in test [1], in test [2], in [3], in test [4], in [5] and in test [6] was above 100 µM in each case. Further, the TGI in [7], in test [8] and in test [9] was above 100 µM in each case.

`CC[N+]1(C)CCC(O)(c2ccc(C)cc2)C(C(=O)c2ccc(C)cc2)C1` (stereo unspecified): the TGI in [1] is above 100 µM; in test [2] it was 36.9 µM; in [3], above 100 µM; in test [4] it was above 100 µM; in [5], above 100 µM; in test [6], 48 µM. Also, the TGI in test [7], in test [8] and in test [9] was above 100 µM each time.

In the case of `CC(=O)N(C)c1ccc(Nc2ccnc3ccc4nn(C)nc4c23)cc1`, the TGI in test [1] was 76.1 µM; in [2] it was 46.6 µM; in [3] it was above 100 µM; in [4], 37 µM; in test [5], above 100 µM; in [6] it was 30.2 µM. Besides, the TGI in test [7] was above 100 µM; in test [8] it was 45.7 µM; in test [9] it was 47.6 µM.
